What all share (assay): In Vitro Kinase Assay
In experiment [1] the target is Cyclin-dependent kinase 9 (Homo sapiens, UniProt P50750). An excerpt:
(§1) Kinase assay using cyclin-dependant kinases (CDK).

In experiment [2] the target is Cyclin-dependent kinase 2 (Homo sapiens, UniProt P24941).
Source text: as §1

The target of experiment [3] is Cyclin-dependent kinase 7 (Homo sapiens, UniProt P50613).
Source text: as §1

Experiment [4] has as its target Cyclin-dependent kinase 4 (Homo sapiens, UniProt P11802).
Source text: as §1

Experiment [5] concerns the target Cyclin-dependent kinase 1 (Homo sapiens, UniProt P06493).
Source text: as §1

Each structure is given as a SMILES string.

Cyclin-dependent kinase 7, sequence (P50613 whole entry): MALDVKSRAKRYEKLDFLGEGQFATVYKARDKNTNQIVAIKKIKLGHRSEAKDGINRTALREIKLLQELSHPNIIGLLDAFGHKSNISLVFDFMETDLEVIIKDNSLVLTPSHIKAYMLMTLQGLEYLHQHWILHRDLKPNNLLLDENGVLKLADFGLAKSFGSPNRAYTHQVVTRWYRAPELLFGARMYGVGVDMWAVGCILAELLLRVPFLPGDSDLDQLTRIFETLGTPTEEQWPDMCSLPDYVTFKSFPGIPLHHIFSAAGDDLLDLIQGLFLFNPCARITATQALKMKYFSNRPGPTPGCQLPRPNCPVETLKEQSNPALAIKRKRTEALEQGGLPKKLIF
Cyclin-dependent kinase 4, sequence (P11802 whole entry): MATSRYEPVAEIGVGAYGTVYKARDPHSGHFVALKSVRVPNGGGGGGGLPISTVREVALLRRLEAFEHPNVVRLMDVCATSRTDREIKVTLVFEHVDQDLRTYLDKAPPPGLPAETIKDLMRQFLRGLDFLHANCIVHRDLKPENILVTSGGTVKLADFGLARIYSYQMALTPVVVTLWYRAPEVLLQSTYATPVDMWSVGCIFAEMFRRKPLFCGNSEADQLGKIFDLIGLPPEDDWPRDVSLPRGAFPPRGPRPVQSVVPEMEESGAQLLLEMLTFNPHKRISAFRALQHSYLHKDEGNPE
Cyclin-dependent kinase 9, sequence (P50750 whole entry): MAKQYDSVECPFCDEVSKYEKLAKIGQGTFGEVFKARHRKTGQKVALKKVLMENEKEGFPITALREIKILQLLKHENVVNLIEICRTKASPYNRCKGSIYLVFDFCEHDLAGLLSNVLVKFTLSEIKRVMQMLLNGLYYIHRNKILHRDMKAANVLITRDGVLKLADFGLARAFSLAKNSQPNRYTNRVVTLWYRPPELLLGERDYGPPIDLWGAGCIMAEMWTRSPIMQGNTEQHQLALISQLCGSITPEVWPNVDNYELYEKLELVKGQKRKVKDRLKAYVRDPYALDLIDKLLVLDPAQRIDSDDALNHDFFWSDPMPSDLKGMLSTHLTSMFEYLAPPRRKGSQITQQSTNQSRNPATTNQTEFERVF
Cyclin-dependent kinase 1, sequence (P06493 whole entry): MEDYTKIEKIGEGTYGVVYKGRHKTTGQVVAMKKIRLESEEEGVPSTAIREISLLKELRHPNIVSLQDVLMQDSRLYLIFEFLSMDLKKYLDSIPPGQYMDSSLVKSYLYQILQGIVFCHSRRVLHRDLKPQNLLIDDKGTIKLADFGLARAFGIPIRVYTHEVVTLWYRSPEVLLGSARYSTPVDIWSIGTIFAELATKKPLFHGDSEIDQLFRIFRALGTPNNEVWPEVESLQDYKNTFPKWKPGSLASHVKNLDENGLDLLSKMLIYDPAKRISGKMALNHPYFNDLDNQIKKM

As a reminder, the Ki is a measure of affinity in units of concentration, obtained from inhibition or displacement. Low values mean a stronger hold on the target, high ones a looser hold on the target. For `CCNc1nc(C)c(-c2ccnc(Nc3cccc(S(N)(=O)=O)c3)n2)s1` [CDK Inhibitor, 2], the Ki is 4.5 nM in experiment [1]; 403 nM in experiment [2]; 56 nM in experiment [3]; 132 nM in experiment [4]; 691 nM in experiment [5].
On the same counts, the results for `CNc1nc(C)c(-c2ccnc(Nc3cccc(S(N)(=O)=O)c3)n2)s1` [CDK Inhibitor, 3] are 0.8 nM, 2.4 nM, 25 nM, 9.1 nM and 67 nM.
In the same order, the values of `CNc1nc(C)c(-c2ccnc(Nc3cccc(S(=O)(=O)NC)c3)n2)s1` [CDK Inhibitor, 4] are 4.3 nM, 33 nM, 107 nM, 20 nM and 334 nM.
`CNS(=O)(=O)c1cccc(Nc2nccc(-c3sc(N)nc3C)n2)c1` [CDK Inhibitor, 5]: the Ki in experiment [1] worked out at 4.3 nM; in experiment [2], 26 nM; in experiment [3], 127 nM; in experiment [4] it was 163 nM; in experiment [5] it was 233 nM.
On the same counts, the results for `CNc1nc(C)c(-c2ccnc(Nc3cccc(S(C)(=O)=O)c3)n2)s1` [CDK Inhibitor, 6] are 0.29 nM, 1.6 nM, 91 nM, 94 nM and 86 nM.
As for `CCNc1nc(C)c(-c2ccnc(Nc3cccc(S(C)(=O)=O)c3)n2)s1` [CDK Inhibitor, 7], the Ki is 0.96 nM in experiment [1]; 7.6 nM in experiment [2]; 47 nM in experiment [3]; 139 nM in experiment [4]; more than 500 nM in experiment [5].
On the same counts, the results for `CCNS(=O)(=O)c1cccc(Nc2nccc(-c3sc(N)nc3C)n2)c1` [CDK Inhibitor, 8] are 5.9 nM, 47 nM, 193 nM, 391 nM and 660 nM.
Regarding `CNc1nc(C)c(-c2ccnc(Nc3ccc(C)c(S(=O)(=O)N4CCOCC4)c3)n2)s1` [CDK Inhibitor, 9], the Ki is 6.7 nM in experiment [1]; more than 500 nM in experiment [2]; 3470 nM in experiment [3]; more than 500 nM in experiment [4]; more than 500 nM in experiment [5].
For the molecule `Cc1ccc(Nc2nccc(-c3sc(N)nc3C)n2)cc1S(=O)(=O)N1CCOCC1` [CDK Inhibitor, 10], the Ki in experiment [1] is 8.5 nM; in experiment [2], more than 500 nM; in experiment [3] it was 304 nM; in experiment [4], more than 500 nM; in experiment [5] it was more than 500 nM.
As for `COCCNS(=O)(=O)c1ccc(Nc2nccc(-c3sc(=O)n(C)c3C)n2)cc1` [CDK Inhibitor, 11], in experiment [4], the Ki was more than 500 nM.
Regarding `Cc1c(-c2ccnc(Nc3cccc(C#N)c3)n2)sc(=O)n1C` [CDK Inhibitor, 12], the Ki in experiment [2] is 0.52 nM; in experiment [4], 102 nM.
Regarding `Cc1ccc(Nc2nccc(-c3sc(=O)n(C)c3C)n2)cc1[N+](=O)[O-]` [CDK Inhibitor, 13], the inhibition constant (Ki) in experiment [1] was determined as 5.9 nM; in experiment [2] it was 28 nM; in experiment [3], 0.56 nM; in experiment [4], 60 nM; in experiment [5], 3 nM.
In the same order, the values of `Cc1c(-c2ccnc(Nc3ccc(N4CCNCC4)cc3)n2)sc(=O)n1C` [CDK Inhibitor, 14] are 0.38 nM, 149 nM, 2.3 nM, 68 nM and 449 nM.

Source of the values: BindingDB's records for doi:10.1016/j.chembiol.2010.07.016 (Cyclacel, 2010).
